Measurements taken from US20260200990A1, “MODIFIED LONG PEPTIDES SUITABLE FOR USE IN IMMUNISATION” (ISABELLA PHARMA B.V., priority 2022, published 2026).
Ends that are not written are not given here.

Tested on: T cells cultured from PBMC from healthy donors
Test: T cell induction by PRAME-based SLPs, IFNy ELISpot (test 1 and test 2)
Parameters: species or system human; key to ELISPOT IFNy / ELISPOT IFNy, summary of the results in the table: − (negative); + (positive); When at least one donor had a positive response, this is denoted as POS
Conditions: for ELISPOT IFNy, summary of the results in the table: Table 5, all donors; for IFNy response in in vitro human T cell cultures: summary over the donors tested
Method: The capacity of human-PRAME-based SLPs to activate T cells was studied. The biological activity of the synthesized and purified SLPs was tested using PBMC from healthy donors. Monocytes were isolated using anti-CD14 beads by magnet activated cell sorting (MACS) following the protocol of the supplier (Miltenyi Biotec). In short, PBMCs were isolated by centrifugation over a Ficoll gradient and cryopreserved. To generate dendritic cells (DCs), approximately […] thawed PBMC were used for the isolation of CD14 positive cells. The cells were cultured for three days at 37° C. in 2 ml/well of IMDM 4% human serum (HS) containing 800 U/ml GM-CSF and 500 U/ml IL-4 (Peprotech). After 3 days 1 mL/well of IMDM 4% HS with GM-CSF (2400 U/mL) and IL-4 (1500 U/mL) was added to the monocytes-derived DCs and these adhered cells were cultured for an additional 3 days. On day 6, long peptides distributed over 2 pools were added to monocyte-derived DCs of naive donors at a 13 μM concentration and incubated overnight at 37° C. The next day (day 7) peptide-loaded DCs were harvested, irradiated (1000 rad), washed and mixed in a 1:10 ratio with autologous PBMC in IMDM 8% human serum in the presence of IL-7 (10 ng/ml) and IL-12p70 (100 μg/mL).
On day 10 new DCs were generated and loaded, after 6 days, with SLPs on day 16 as described above. The next day, these peptide-loaded DCs were harvested, irradiated (1000 rad) and washed. Also the cultured T cells were harvested. Both were counted and mixed in a 1:10 ratio (DC:T) in IMDM 8% human serum in the presence of IL-7 (10 ng/ml) and IL-12p70 (100 μg/mL) for the first restimulation. On the same day, new DCs were generated as described above that were loaded with SLPs on day 23 as described above. The next day, peptide-loaded DCs were harvested, irradiated (1000 rad) and washed. Also the cultured and restimulated T cells were harvested. Both were counted and mixed in a 1:10 ratio (DC:T) in IMDM 8% human serum in the presence of IL-7 (10 ng/ml) and IL-12p70 (100 μg/mL) for the second restimulation.
On this day 24, also test 1 was started in which DCs loaded with individual SLPs were cultured with harvested T cells from restimulation 1. For test 1, DCs and harvested T cells were cultured in a 1:10 ratio for 2 days after which cells were transferred to a coated ELISpot plate (see description below). On day 24, new DCs were generated as described above that were loaded with SLPs on day 30 as described above. The next day, peptide-loaded DCs were harvested, irradiated (1000 rad) and washed. Also the cultured twice restimulated T cells were harvested. Both were counted and mixed in a 1:10 ratio (DC:T) in IMDM 8% human serum in the presence of IL-2 (30 IU/mL) and IL-12p70 (100 μg/mL) for the third restimulation.
On day 31, also test 2 was started in which DCs loaded with individual SLPs were cultured with harvested T cells from restimulation 2. For test 2, DCs and harvested T cells were cultured in a 1:10 ratio for 2 days after which cells were transferred to a coated ELISpot plate (see description below).
The T cell cultures were restimulated three times in 1-week cycles using peptide loaded autologous moDCs. After the 2nd and 3rd restimulation, reactivity towards single SLPs was tested (test 1 and test 2, respectively). Reactivity was determined by measuring IFNy production using ELISpot.
For ELISpot analysis, multiscreen plates were coated with an IFNy coating antibody overnight at 4° C. The next day, the plate was washed 4× with PBS and blocking was done using IMDM 8% HS at 37° C. for at least one hour. Each sample was tested in triplicate. As a positive control, phytoheamagglutinin (PHA, 1 μg/mL) was added to cells that were not stimulated with SLP after thawing. The plate was cultured overnight at 37° C. Thereafter, cells were discarded and the plate was washed using PBS/0.05% Tween-20. The IFNy detection antibody was diluted and added to each well and incubated for 2 hours at room temperature. […]

[1] = donor BC298, Test 1, 2 peptide pools
[2] = donor BC298, Test 2, 2 peptide pools
[3] = donor BC305, Test 1, 2 peptide pools
[4] = donor BC305, Test 2, 2 peptide pools
[5] = donor BC306, Test 1, 2 peptide pools
[6] = donor BC306, Test 2, 2 peptide pools
[7] = donor BC312, Test 1, 2 peptide pools
[8] = donor BC312, Test 2, 2 peptide pools
[9] = donor BC321, Test 1, 2 peptide pools
[10] = donor BC321, Test 2, 2 peptide pools
[11] = donor BC228, Test 1, pool of 3 peptides
[12] = donor BC228, Test 2, pool of 3 peptides
[13] = donor BC303, Test 1, pool of 3 peptides
[14] = donor BC303, Test 2, pool of 3 peptides
[15] = donor BC314, Test 1, pool of 3 peptides
[16] = donor BC314, Test 2, pool of 3 peptides
[17] = donor BC320, Test 1, pool of 3 peptides
[18] = donor BC320, Test 2, pool of 3 peptides
[19] = donor BC322, Test 1, pool of 3 peptides
[20] = donor BC322, Test 2, pool of 3 peptides
[21] = donor BC323, Test 1, pool of 3 peptides
[22] = donor BC323, Test 2, pool of 3 peptides
[23] = donor BC290, Test 1, 2 peptide pools
[24] = donor BC290, Test 2, 2 peptide pools
[25] = donor BC315, Test 1, 2 peptide pools
[26] = donor BC315, Test 2, 2 peptide pools

Sequence | ELISPOT IFNy, summary of the results in the table | ELISPOT IFNy [1] | ELISPOT IFNy [2] | ELISPOT IFNy [3] | ELISPOT IFNy [4] | ELISPOT IFNy [5] | ELISPOT IFNy [6] | ELISPOT IFNy [7] | ELISPOT IFNy [8] | ELISPOT IFNy [9] | ELISPOT IFNy [10] | ELISPOT IFNy [11] | ELISPOT IFNy [12] | ELISPOT IFNy [13] | ELISPOT IFNy [14] | ELISPOT IFNy [15] | ELISPOT IFNy [23] | ELISPOT IFNy [24] | ELISPOT IFNy [25] | ELISPOT IFNy [26] | other results
ALYVDSLFFLRGRLDQLLRHVMNPLETLSITNCRL (ALYVDSLFFLRGRLDQLLRHVMNPLETLSITNC(cysteinyl)RL; listed as Homo sapiens) [SEQ ID NO: 40, PRAME-based SLP, cysteinylated form tested] | POS | − | − | − | − | − | − | − | − | + | + |  |  |  |  |  |  |  |  |  | 
KEGACDELFSYLIEKVKRKKNVLRL (KEGAC(cysteinyl)DELFSYLIEKVKRKKNVLRL; listed as Homo sapiens) [SEQ ID NO: 39, PRAME-based SLP, cysteinylated form tested] |  | − | − | − | − | − | − | − | − | − | − | − | − | − | − | + |  |  |  |  | ELISPOT IFNy [16]: +; ELISPOT IFNy [17]: −; ELISPOT IFNy [18]: −; ELISPOT IFNy [19]: −; ELISPOT IFNy [20]: −; ELISPOT IFNy [21]: −; ELISPOT IFNy [22]: −; IFNy response in in vitro human T cell cultures: positive IFNy response
LETFKAVLDGLDVLLAQEVRPRRWKLQVLDLRK (listed as Homo sapiens) [SEQ ID NO: 45, PRAME-based SLP of WO2008118017, reference compound] |  | − | − | − | − | − | − | − | − | − | − | − | − | − | − | − |  |  |  |  | ELISPOT IFNy [16]: −; ELISPOT IFNy [17]: −; ELISPOT IFNy [18]: −; ELISPOT IFNy [19]: −; ELISPOT IFNy [20]: −; ELISPOT IFNy [21]: −; ELISPOT IFNy [22]: −; IFNy response in in vitro human T cell cultures: did not show convincing responses
LKAMVQAWPFTCLPLGVLMKGQHLHLETFKAVL (LKAMVQAWPFTC(cysteinyl)LPLGVLMKGQHLHLETFKAVL; listed as Homo sapiens) [SEQ ID NO: 38, PRAME-based SLP, cysteinylated form tested] | POS | + | + | − | − | − | − | − | − | + | − |  |  |  |  |  | − | − | − | − | 
LLPRELFPPLFMAAFDGRHSQTLKAMVQAWPF (listed as Homo sapiens) [SEQ ID NO: 43, PRAME-based SLP] |  | − | − | − | − | − | − | − | − | + | − |  |  |  |  |  |  |  |  |  | 
LPSLSHCSQLTTLSFYGNSISISALQSLLQHLIGL (LPSLSHC(cysteinyl)SQLTTLSFYGNSISISALQSLLQHLIGL; listed as Homo sapiens) [SEQ ID NO: 44, PRAME-based SLP, cysteinylated form tested] |  | − | + | − | − | − | − | − | − | + | − |  |  |  |  |  |  |  |  |  | 
PTLAKFSPYLGQMINLRRLLLSHIHASSYISPE (listed as Homo sapiens) [SEQ ID NO: 37, PRAME-based SLP] |  | − | − | + | − | − | − | − | − | − | − |  |  |  |  |  | + | + | − | − | 
VLSLSGVMLTDVSPEPLQALLERASATLQDLVFDE (listed as Homo sapiens) [SEQ ID NO: 50, PRAME-based SLP of WO2008118017, reference compound] |  | − | − | − | − | − | − | − | − | − | − | − | − | − | − | − | − | − | − | − | ELISPOT IFNy [16]: −; ELISPOT IFNy [17]: −; ELISPOT IFNy [18]: −; ELISPOT IFNy [19]: −; ELISPOT IFNy [20]: −; ELISPOT IFNy [21]: −; ELISPOT IFNy [22]: −; IFNy response in in vitro human T cell cultures: did not show convincing responses
VLYPVPLESYEDIHGTLHLERLAYLHARLREL (listed as Homo sapiens) [SEQ ID NO: 41, PRAME-based SLP] | POS | − | − | − | − | − | − | − | − | − | − |  |  |  |  |  | − | − | + | + | 
